The values below come from article PMC4849076, “New Cyclic Lipopeptides of the Iturin Class Produced by Saltern-Derived Bacillus sp. KCB14S006” (Marine Drugs, 2016).

Values after ≈ are worked out from the molar mass of the structure shown. Like-named read-outs stand apart in the source and are kept apart here. *1 amine or outer side, *2 acyl side, *3 side chain or, on linkers, in order; H or OH if unused. Where a SMILES comes first, the peptide text is derived from it. [ ]: non-standard residue; d: D form. X1 = CCC(C)CCCCCCCCCC[C@H](CC(=O)[*:2])N[*:1]; X2 = CC(C)CCCCCCCCCCC[C@H](CC(=O)[*:2])N[*:1]; Hyp = O=C(O)[C@@H]1C[C@@H](O)CN1

The test system of series [1] is Aspergillus flavus KCTC 6984. Nature of the series: Antifungal assay (MIC), Aspergillus flavus. Format: cell-based. Conditions: for MIC: Aspergillus flavus, potato dextrose broth, 2% of overnight cultures, 28 °C, 72 h, lowest concentration preventing visible growth; for Antifungal activity compared with 3 and 4: A. flavus, from MIC. As for the experimental part: (§1) The following microorganisms were used as test strains in the assay; Aspergillus flavus KCTC 6984, Neurospora crassa KCTC 6079, Candida tropicalis KCTC 7830, Candida albicans KCTC 7678, Fusarium oxysporum f. sp. cucumerinum KCTC 6084, Alternaria brassicicola ATCC 96836 and Penicillium griseofulvum KCTC 6435. Potato dextrose broth (Difco Laboratories) was used for a test medium. For C. albicans and C. tropicalis, 100 μL of inoculum suspension of 10^5 spores/mL was plated into 96-well plates containing diluted test compounds, and the plates were incubated at 28 °C for 48 h. For A. flavus, N. crassa, F. oxysporum, A. brassicicola and P. griseofulvum, 100 μL of cell suspension containing 2% of overnight cultures in 96-well were incubated at 28 °C for 72 h. The MIC values were determined as the lowest concentration of each compound that prevented visible growth.

The test system of series [2] is Neurospora crassa KCTC 6079. Description: Antifungal assay (MIC), Neurospora crassa. Format: cell-based. The following applies: for MIC: Neurospora crassa, potato dextrose broth, 2% of overnight cultures, 28 °C, 72 h, lowest concentration preventing visible growth; for Antifungal activity compared with 3 and 4: N. crassa, from MIC. As for the experimental part:
as §1

Series [3] has as its system Candida tropicalis KCTC 7830. Nature of the series: Antifungal assay (MIC), Candida tropicalis. Format: cell-based. Conditions: 10^5 spores/mL, 28 °C, 48 h, lowest concentration preventing visible growth. As for the experimental part: as §1
In series [4] the test system is Candida albicans KCTC 7678. Nature of the series: Antifungal assay (MIC), Candida albicans. The following applies: for MIC: Candida albicans, potato dextrose broth, 10^5 spores/mL, 28 °C, 48 h, lowest concentration preventing visible growth; for Antifungal activity compared with 3 and 4: C. albicans, from MIC. The series is classed as cell-based. As for the experimental part: as §1

Series [5] relates to Fusarium oxysporum f. sp. cucumerinum KCTC 6084. Nature of the series: Antifungal assay (MIC), Fusarium oxysporum. Format: cell-based. As for the experimental part:
as §1

Series [6] concerns Alternaria brassicicola ATCC 96836. Nature of the series: Antifungal assay (MIC), Alternaria brassicicola. The series is classed as cell-based. The following applies: 2% of overnight cultures, 28 °C, 72 h, lowest concentration preventing visible growth. As for the experimental part: as §1
Series [7] concerns Penicillium griseofulvum KCTC 6435. Description: Antifungal assay (MIC), Penicillium griseofulvum. The series is classed as cell-based. Conditions: for MIC: Penicillium griseofulvum, potato dextrose broth, 2% of overnight cultures, 28 °C, 72 h, lowest concentration preventing visible growth; for Antifungal activity compared with 3 and 4: P. griseofulvum, from MIC. As for the experimental part:
as §1

The next series in a line: Cytotoxicity assay, HeLa. The series is classed as cell-based. Conditions: human, HeLa cells, DMEM + 10% fetal bovine serum, 37 °C, WST-8, absorbance 450 nm, read-out: Cytotoxic activity, IC50. As for the experimental part: (§2) The human cervix epidermoid carcinoma cell line HeLa was cultured at 37 °C in DMEM (Invitrogen/Life Technologies, Carlsbad, CA, USA), supplemented with 10% fetal bovine serum (Sigma-Aldrich, St. Louis, MO, USA). src^ts-NRK cells, rat kidney cells that were infected with ts25, a T-class mutant of Rous sarcoma virus Prague strain, were cultured at permissive temperature (32 °C) in MEM (Sigma-Aldrich), supplemented with 10% calf serum (PAA Laboratories, Pashing, Austria). Each cell line was seeded into a 96-well plate (HeLa, 4 × 10^3 cells/well; src^ts-NRK, 1 × 10^4 cells/well) and then exposed to test compounds. After 48 h incubation, cell proliferation was determined using a Cell Count Reagent SF (Nacalai Tesque). Briefly, a 1/10 volume of WST-8 solution was added to each well, and the plates were incubated at 37 °C for 1 h. Then, the absorbance at 450 nm was measured in a microplate reader.
For orientation: Tetrazolium dyes change colour on reduction, which living cells bring about.

Series [8] in a line: Cytotoxicity assay, src^ts-NRK. The series is classed as cell-based. Conditions: rat, src^ts-NRK cells, MEM + 10% calf serum, 32 °C (permissive temperature), WST-8, absorbance 450 nm, read-out: Cytotoxic activity, IC50. As for the experimental part: as §2
The target in a further series is T1, human recombinant IDO (Homo sapiens, UniProt P14902).
T1 construct: made in house; host or cells: E. coli
Description: Indoleamine 2,3-dioxygenase (IDO) inhibition assay. The series is classed as biochemical. As for the experimental part: The enzymatic inhibition assay was performed with human recombinant IDO expressed in E. coli according to previously described method with some modifications. The reaction mixture (200 μL) contained 50 mM potassium phosphate buffer (pH 6.5), 20 mM ascorbic acid, 10 μM methylene blue, 200 μM L-Trp, 20 μg/mL catalase and a sample in 2 μL of DMSO. The samples were serially diluted […] from 50 to 0.1 μM. The reaction was started by the addition of IDO and continued at 37 °C for 60 min. After termination of the reaction by addition of 40 μL of 30% (w/v) trichloroacetic acid, the resulting mixtures were incubated at 60 °C for 15 min, followed by centrifugation at 2000 × g for 15 min. Finally, 125 μL of supernatant is added to 125 μL of p-dimethylaminobenzaldehyde (pDMAB) (2%, v/v) in acetic acid, and the absorbance at 480 nm was measured.

Another series relates to MDA-MB-231. Set-up: method as in PMID 25974307. The following applies: MDA-MB-231 breast cancer cells; cited from earlier work.
In the next series the test system is MCF-7. Further details: method as in PMID 25974307. Conditions: MCF-7 breast cancer cells; cited from earlier work.
A further series has as its system Akt signaling network. Further details: method as in PMID 25974307. Conditions: MDA-MB-231 and MCF-7 breast cancer cells; cited from earlier work.
[9] abbreviates: potato dextrose broth, 2% of overnight cultures, 28 °C, 72 h, lowest concentration preventing visible growth.

T1 sequence (P14902 whole entry): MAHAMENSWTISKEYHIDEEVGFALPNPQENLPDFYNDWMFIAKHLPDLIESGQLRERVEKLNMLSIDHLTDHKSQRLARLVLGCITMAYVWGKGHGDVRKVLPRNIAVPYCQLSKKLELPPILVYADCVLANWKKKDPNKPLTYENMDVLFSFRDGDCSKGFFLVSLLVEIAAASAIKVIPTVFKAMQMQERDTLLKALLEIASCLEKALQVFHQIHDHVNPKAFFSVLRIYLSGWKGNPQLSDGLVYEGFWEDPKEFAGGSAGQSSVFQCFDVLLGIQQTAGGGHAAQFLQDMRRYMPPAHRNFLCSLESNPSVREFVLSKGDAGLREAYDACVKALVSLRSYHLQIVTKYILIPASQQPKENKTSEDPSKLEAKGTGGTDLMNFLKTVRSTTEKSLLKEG

Consider `C[C@@H]1[C@H](O)[C@@H](C)/C=C/C=C/C=C/C=C/C=C/C=C/C=C/[C@H](O[C@@H]2O[C@H](C)[C@@H](O)[C@H](N)[C@@H]2O)C[C@@H]2O[C@](O)(C[C@@H](O)C[C@@H](O)[C@H](O)CC[C@@H](O)C[C@@H](O)CC(=O)O[C@H]1C)C[C@H](O)[C@H]2C(=O)O` [Amphotericin B, reference compound], for which the MIC in series [1] (KCTC6984, read-out: MIC) is 0.195 µg/mL (≈ 0.211 µM); in [2] (KCTC6079, read-out: MIC), 0.098 µg/mL (≈ 0.106 µM); in series [3] (KCTC7830, potato dextrose broth, read-out: MIC) it was 0.781 µg/mL (≈ 0.845 µM); in series [4] (KCTC7678, read-out: MIC), 0.098 µg/mL (≈ 0.106 µM); in [5] (KCTC6084, 72 h) it was 12.5 µg/mL (≈ 13.5 µM); in series [6] (ATCC96836, potato dextrose broth, read-out: MIC), 0.391 µg/mL (≈ 0.423 µM). The MIC in [7] (KCTC6435, read-out: MIC) came to 3.12 µg/mL (≈ 3.38 µM).

For `CC(C)CCCCCCCCCCC[C@@H]1CC(=O)N[C@@H](CC(N)=O)C(=O)N[C@H](Cc2ccc(O)cc2)C(=O)N[C@H](CC(N)=O)C(=O)N[C@@H](CCC(N)=O)C(=O)N2C[C@H](O)C[C@H]2C(=O)N[C@H](CC(N)=O)C(=O)N[C@@H](CO)C(=O)N1` [Compound 1, Iturin F1] (cyclo(N[dY][dN]Q[Hyp][dN]S[X2])), the “Antifungal activity compared with 3 and 4” value in series [1] is “better activities than 3 and 4”; in [2], “better activities than 3 and 4”; in series [4], “better activities than 3 and 4”; in [7], “better activities than 3 and 4”. The MIC was determined as 3.125 µg/mL (≈ 2.84 µM) in series [1]; 6.25 µg/mL (≈ 5.68 µM) in series [2]; 6.25 µg/mL (≈ 5.68 µM) in [3] (potato dextrose broth); 6.25 µg/mL (≈ 5.68 µM) in series [4]; 25 µg/mL (≈ 22.7 µM) in series [5] (setting [9]); 25 µg/mL (≈ 22.7 µM) in series [6] (potato dextrose broth). The compound further displayed an MIC in series [7] of 3.125 µg/mL (≈ 2.84 µM). For the same compound, the IC50 at 48 h in “Cytotoxicity assay, HeLa” amounted to 8.9 µM; in series [8] it was 8.9 µM.

With `CCC(C)CCCCCCCCCC[C@@H]1CC(=O)N[C@@H](CC(N)=O)C(=O)N[C@H](Cc2ccc(O)cc2)C(=O)N[C@H](CC(N)=O)C(=O)N[C@@H](CCC(N)=O)C(=O)N2C[C@H](O)C[C@H]2C(=O)N[C@H](CC(N)=O)C(=O)N[C@@H](CO)C(=O)N1` (stereo partly drawn) [Compound 2, Iturin F2] (cyclo(N[dY][dN]Q[Hyp][dN]S[X1])), the “Antifungal activity compared with 3 and 4” value in series [1] was “better activities than 3 and 4”; in series [2] it was “better activities than 3 and 4”; in series [4], “better activities than 3 and 4”; in series [7], “better activities than 3 and 4”. For the same compound, the MIC was 3.125 µg/mL (≈ 2.84 µM) in series [1]; 6.25 µg/mL (≈ 5.68 µM) in [2]; 6.25 µg/mL (≈ 5.68 µM) in series [3] (potato dextrose broth); 6.25 µg/mL (≈ 5.68 µM) in series [4]; 25 µg/mL (≈ 22.7 µM) in [5] (setting [9]); 25 µg/mL (≈ 22.7 µM) in series [6] (potato dextrose broth). In addition, the MIC in [7] was found to be 3.125 µg/mL (≈ 2.84 µM). The concentration for half-maximal inhibition (IC50) at 48 h in “Cytotoxicity assay, HeLa” amounted to 7.8 µM; in series [8], 7.4 µM.

As for `CC(C)CCCCCCCCCCC[C@@H]1CC(=O)N[C@@H](CC(N)=O)C(=O)N[C@H](Cc2ccc(O)cc2)C(=O)N[C@H](CC(N)=O)C(=O)N[C@@H](CCC(N)=O)C(=O)N2CCC[C@H]2C(=O)N[C@H](CC(N)=O)C(=O)N[C@@H](CO)C(=O)N1` [Compound 3, Iturin A9] (cyclo(N[dY][dN]QP[dN]S[X2])), the minimal inhibitory concentration (MIC) was found to be 25 µg/mL (≈ 23 µM) in [1]; 12.5 µg/mL (≈ 11.5 µM) in series [2]; 6.25 µg/mL (≈ 5.76 µM) in series [3] (potato dextrose broth); 12.5 µg/mL (≈ 11.5 µM) in [4]; 25 µg/mL (≈ 23 µM) in [5] (setting [9]); 25 µg/mL (≈ 23 µM) in [6] (potato dextrose broth). The same compound came in with an MIC in [7] of 6.25 µg/mL (≈ 5.76 µM). Besides, the half-inhibitory concentration (IC50) at 48 h in the series “Cytotoxicity assay, HeLa” came out at 4.6 µM; in series [8], 5.2 µM.

For the compound `CCC(C)CCCCCCCCCC[C@@H]1CC(=O)N[C@@H](CC(N)=O)C(=O)N[C@H](Cc2ccc(O)cc2)C(=O)N[C@H](CC(N)=O)C(=O)N[C@@H](CCC(N)=O)C(=O)N2CCC[C@H]2C(=O)N[C@H](CC(N)=O)C(=O)N[C@@H](CO)C(=O)N1` (stereo partly drawn) [Compound 4, Iturin A8] (cyclo(N[dY][dN]QP[dN]S[X1])), the minimum inhibitory concentration (MIC) was 12.5 µg/mL (≈ 11.5 µM) in [1]; 12.5 µg/mL (≈ 11.5 µM) in [2]; 6.25 µg/mL (≈ 5.76 µM) in series [3] (potato dextrose broth); 12.5 µg/mL (≈ 11.5 µM) in series [4]; 25 µg/mL (≈ 23 µM) in [5] (setting [9]); 25 µg/mL (≈ 23 µM) in series [6] (potato dextrose broth). In [7], this compound registered an MIC of 6.25 µg/mL (≈ 5.76 µM). For the same compound, the IC50 at 48 h is 5.6 µM in the series “Cytotoxicity assay, HeLa” and 9 µM in [8]. Besides, the IC50 at human recombinant IDO (human recombinant IDO expressed in E. coli, 50 mM potassium phosphate pH 6.5, 200 μM L-Trp, 37 °C, 60 min, pDMAB, absorbance 480 nm, read-out: IDO inhibition, IC50) came out at 5.5 µM. At human recombinant IDO (human recombinant IDO, pH 6.5, 200 μM L-Trp, 37 °C, 60 min, samples 0.1 to 50 μM), the “IDO inhibitory activity (in words)” value is recorded as “significant inhibitory activity”.

Take `CC1=CC(=O)c2ccccc2C1=O` [menadione, reference compound]: at human recombinant IDO, the IC50 was found to be 0.64 µM.

As to iturin A, the Inhibition of proliferation result in the series on MDA-MB-231 and in the series on MCF-7 was “inhibits the proliferation” in each case. Also, in the series on Akt signaling network, the “Inhibition of Akt signaling network” value was “inhibiting the Akt signaling network”.

For orientation: MIC means the lowest concentration found to suppress growth. By IC50 is commonly meant the concentration that gives 50% inhibition.
